The results in this text go back to publication PMC9120017, “Inhibition mechanism of the chloride channel TMEM16A by the pore blocker 1PBC” (Nature Communications, 2022).

Several values for one entry are separate records, joined by “and”; a condition that tells them apart may be missing. Equal values may be shown once.

The target of this experiment is T1, wild-type mouse TMEM16A (Mus musculus, UniProt Q8BHY3).
T1 construct: expressed in transfected cells; host or cells: HEK293T
T1 sequence (Q8BHY3 1-960): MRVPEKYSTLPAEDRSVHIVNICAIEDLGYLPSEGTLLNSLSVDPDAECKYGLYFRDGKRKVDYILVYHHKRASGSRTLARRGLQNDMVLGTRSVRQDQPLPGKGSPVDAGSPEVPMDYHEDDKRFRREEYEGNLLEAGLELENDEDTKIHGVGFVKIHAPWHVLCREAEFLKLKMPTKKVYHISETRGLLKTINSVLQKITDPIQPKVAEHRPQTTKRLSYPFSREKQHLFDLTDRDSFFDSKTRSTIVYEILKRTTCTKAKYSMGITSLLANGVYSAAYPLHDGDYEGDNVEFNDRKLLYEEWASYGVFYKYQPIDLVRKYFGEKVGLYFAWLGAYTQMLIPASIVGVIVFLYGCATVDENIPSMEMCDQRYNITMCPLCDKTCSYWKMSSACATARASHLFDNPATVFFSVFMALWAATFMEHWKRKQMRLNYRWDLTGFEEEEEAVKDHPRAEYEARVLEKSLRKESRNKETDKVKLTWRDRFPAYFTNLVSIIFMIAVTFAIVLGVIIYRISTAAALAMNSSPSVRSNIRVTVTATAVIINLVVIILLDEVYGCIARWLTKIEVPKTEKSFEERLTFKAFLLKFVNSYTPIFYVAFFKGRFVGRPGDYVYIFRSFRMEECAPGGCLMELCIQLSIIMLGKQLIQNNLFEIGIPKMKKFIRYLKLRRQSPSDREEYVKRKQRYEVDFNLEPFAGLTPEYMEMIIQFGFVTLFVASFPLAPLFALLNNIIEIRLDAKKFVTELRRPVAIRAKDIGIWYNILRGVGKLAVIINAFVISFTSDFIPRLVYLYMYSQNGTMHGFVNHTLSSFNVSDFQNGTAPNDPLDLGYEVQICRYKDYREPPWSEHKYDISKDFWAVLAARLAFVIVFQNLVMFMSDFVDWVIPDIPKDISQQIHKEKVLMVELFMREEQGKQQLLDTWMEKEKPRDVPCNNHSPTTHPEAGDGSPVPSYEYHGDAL
The experiment can be described thus: Global fit of 1PBC inhibition profiles to an open-channel block mechanism. In kind it is cell-based. The source says:
The inhibition profiles of 1PBC at different Ca^2+ concentrations were fitted to a mechanism assuming that the blocker preferentially binds to the open state. This was incorporated by adding a blocker binding step to the open state in a gating mechanism that we described previously[28] (Supplementary Fig. 9a). The matrix notation of this mechanism[73] is 4 Q=−k01−bk07v07^δb/2k0100000bk07v07^δb/2k10−k10−k12k12000000k21−k21−k23−k24k23k2400000k32−k32−k35v35^δCa/20k35v35^δCa/20000xk42v42^δCa/20−xk42v42^δCa/2−k45k4500000xk53v53^δCa/2k54−xk53v53^δCa/2−k54−k56v56^δCa/2k56v56^δCa/2000000xk65v65^δCa/2−xk65v65^δCa/20k70v70^δb/2000000−k70v70^δb/2 where x and b are the molar concentration of Ca^2+ and the blocker respectively, and the subscripts indicate the transition described by the rate constant k in s^−1, for example, k01 corresponds to the rate constant of the transition from state 0 to 1. δb and δCa are the fraction of membrane potential that modulates the corresponding transitions. […]
The equilibrium occupancy of states was calculated using[73],[74]7 P∞=P(0)(Vλ=0V^−1λ=0) where P(0) is the initial occupancy and V can be obtained from the Eigen decomposition of Q8 Q=VΛV^−1 and9 Λ=λ1⋱λnV=v11⋯vn1⋮⋱⋮v1n⋯vnn are the Eigenvalue and Eigenvector matrices respectively. The open probability calculated using Eq. 7 was used to compute the squared difference for each data point. […]

A word on the Kd: it is the constant that tells how readily two partners part at equilibrium. Regarding `N#Cc1c(C(F)(F)F)cc(O)n2c1nc1ccccc12` [1PBC], the “Apparent valence δb” value (fit at +80 and −80 mV) is ~ 0.27 and 0.27 ± 0.025. Moreover, the dissociation constant (Kd) (zero mV, read-out: Kd 1PBC (open state)) is ~3.6 µM and 3.6 µM.
